# Results taken from PMC5282547, “The Proline/Arginine Dipeptide from Hexanucleotide Repeat Expanded C9ORF72 Inhibits the Proteasome” (eNeuro, 2017).
# Entries after “also recorded” stand apart in the source; their conditions may differ. Where a SMILES comes first, the peptide text is derived from it. The star is where a group is joined. Cbz = O=C(OCc1ccccc1)*
# How the values were obtained:
# motor neurons [1] = assay: Motor neuron survival with IU1 co-treatment; type: cell-based, rat
# Method: Days in vitro (DIV)14 mixed spinal cord cultures were exposed to PR20 or GR20 by addition of synthetic peptide to the media one time. Cultures were fixed 5 d later with freshly prepared 4% paraformaldehyde for 20 min, washed extensively with 0.1 M PBS, pH 7.4, and immunostained with SMI32 to identify motor neurons. […] Motor neurons were counted in three nonoverlapping, randomly selected fields on a coverslip using a 5[times objective, and the values from a single coverslip averaged.
# For experiments involving IU1, DIV14 cultures were treated with PR20 or its vehicle, and every other day, IU1 (or vehicle) was added to the culture media to achieve a final concentration of 5 µM. At DIV19, cultures were fixed and motor neuron number determined as described above.
# motor neurons [2] = assay: Motor neuron survival in mixed spinal cord cultures (SMI32 counts), LD50 determination; type: cell-based, rat
# Method: Mixed spinal cord neuron cultures were prepared as described previously ([Mojsilovic-Petrovic et al., 2006]). Briefly, an astrocyte feeder layer was prepared from the cortex of newborn Sprague Dawley rat pups [postnatal day 2 (P2)] and grown to ∼80% confluency. Subsequently, dissociated embryonic day 15 (E15) spinal cord neurons were added. One to two days later, AraC ([…]) (catalog #C6645; Sigma) was added for 24 h to arrest astrocyte proliferation. Cultures were maintained in glia-conditioned medium supplemented with the following trophic factors (1.0 ng/ml each): human neurotrophin-3, human neurotrophin-4, human brain-derived neurotrophic factor, and rat ciliary neurotrophic factor (Alomone Labs). Half of the culture medium was replaced on a biweekly basis.
# Days in vitro (DIV)14 mixed spinal cord cultures were exposed to PR20 or GR20 by addition of synthetic peptide to the media one time. Cultures were fixed 5 d later with freshly prepared 4% paraformaldehyde for 20 min, washed extensively with 0.1 M PBS, pH 7.4, and immunostained with SMI32 to identify motor neurons. Immunopositive cells >25 µm in diameter are motor neurons based on their costaining for peripherin, ChAT, and islet 1/2 ([Mojsilovic-Petrovic et al., 2006]). Motor neurons were counted in three nonoverlapping, randomly selected fields on a coverslip using a 5[times objective, and the values from a single coverslip averaged. The results of 3-5 independently treated coverslips were the basis and means and variance used in statistical analysis. Each experiment was repeated with independently generated culture 4+ times ([Mojsilovic-Petrovic et al., 2006]).
# Motor neuron survival 5 d later was determined. Once the approximate LD50 was determined, we repeated the analysis with more closely spaced concentrations for a more precise definition of the LD50. Determination of the LD50 of MG132 was accomplished in an identical manner.
# Dendra2 = assay: Optical pulse labeling of Dendra2; type: cell-based, rat; details: vehicle 29.6 h
# Method: (§1) Primary spinal neurons were dissected from E15 rat pups and cultured at a density of 2.5 × 10^5 cells/ml on a laminin/poly-lysine-coated 96-well plate in motor neuron media. Four days after plating, neurons were transfected with Lipofectamine 2000 (Invitrogen). DNA-Lipofectamine mixtures were incubated with neurons for 20 min followed by rinsing. Neurons were then placed in 100 µL of conditioned media that was collected immediately prior to transfection and half fresh motor neuron media containing 4 µM PR20, resulting in a final concentration of 2 µM PR20.
# (§2) Optical pulse labeling experiments were performed using an automated microscopy platform previously described by [Arrasate et al. (2004)] and [Barmada et al. (2014)]. A Nikon Eclipse Ti inverted microscope equipped with a PerfectFocus system, 20× objective lens and an Andor iXon3 897 EMCCD camera were used to acquire images. Samples were illuminated with a Sutter Instruments Lamba XL lamp. The microscope and related components were encased in custom-built plexiglass enclosure set to maintain the temperature at 37°C and CO2 at 5%. Semrock GFP and TRITC filters were used for excitation and detection. A Semrock 405-nm long-pass filter was used for photoactivation. Image acquisition and stage movements were accomplished in an automated fashion using µManager and original code written in BeanShell. For all experiments, photoconversion occurred 24 h following transfection. GFP and TRITC images were acquired immediately following activation and subsequently every 2 h for 12 h. Images were acquired in a similar 12-h window starting 48 h after PR20 treatment. Using in-house image analysis scripts, neuronal cell bodies were identified based on their fluorescent intensity and morphology, and a ROI was drawn around the perimeter of each cell at each time. Single-cell TRITC intensity values were recorded and used to fit a first order exponential decay curve for individual neurons and calculate a Dendra2-light chain 3 (LC3) half-life for each cell. […]
# Dendra2-LC3 = assay: Autophagic flux assay, optical pulse labeling of Dendra2-LC3; type: cell-based, rat
# Method: as §1, §2
# [3] = tested on: ubiquitin-proteasome system; assay: MG-132 flux assay (flux of ubiquitylated substrates through the UPS); type: cell-based, rat
# Method: MG-132 (Sigma) was used to inhibit proteasomal function. Cells were initially treated with PR20 for a total of 48 h using the method outlined in PR20 treatment for biochemical assays. Four hours prior to lysis, these cells were treated with MG-132 or vehicle. The MG-132 was kept in a stock solution in DMSO. This was added directly to culture to achieve a final concentration of 5 μM. Cells were then lysed in RIPA buffer and immunoblotted for ubiquitin.
# Ubiquitin analysis requires the use of deubiquitinase (DUB) inhibitors. Lysis without these inhibitors runs the risk of degradation of the substrates to be targeted. As such, N-ethylmaleimide (Sigma), a potent DUB inhibitor, was used in the lysis buffer. […] The remainder of the lysis procedure follows Cell lysis.
# To test for group differences in the flux assay, a permutation test was used. This is a nonparametric statistical test that was implemented in MATLAB. […] The test first quantifies this by taking the average of each experimental group and then finding the difference of ratios. It then permutes two samples located in two groups randomly, and determines that difference between averages again. This is repeated 50,000 times, and a histogram is plotted. This histogram represents the distribution of random noise in the sample. Since a higher difference in the +MG132/−MG132 ratio is a more “significant” result, the percentage of the random noise produced from 50,000 permutations that is higher in magnitude than the true difference (calculated from un-permuted data) is the p value.
# Permutations of a data point in a +MG132 into a group labeled −MG132 (or vice versa) were not allowed. […] Thus, this group difference was not interesting to us.
# [4] = tested on: mixed spinal cord cultures; assay: Cellular accumulation and disposal of HA-tagged DPR (immunoblot of cell lysates, continuous exposure or 2-h pulse-chase)
# Method: Confluent dishes of astrocyte neuron cocultures at 37°C had volumes equalized to 2 ml of cell culture media each. Approximately 300 μl of media from each dish was removed and pooled with other dishes, PR20 stock solution was added, and the mixture was then added back to the corresponding culture dish, so that each dish contained a final concentration of 2 μM. All plates were incubated with PR20 for 48 h.
# Lysis buffer was prepared containing 1% (v/v) protease inhibitor cocktail, 1% (v/v) PMSF, and 1% (v/v) leucine in 1% RIPA buffer solution on ice. Culture dishes were washed once with ice-cold PBS to remove any remaining media. A total of 125 μl (35-mm dish), 150 μl (6-well plate), or 250 μL (60-mm dish) of lysis buffer was added to each plate, and cells were scraped into a cold 1.5-ml tube. Samples were sonicated for 30 s at 20% intensity, placed on a rotator at 4°C for 20 min, and then centrifuged for 15 min at 13,200 rpm. Supernatant was then removed from each tube for further analysis.
# We investigated the fate of PR20 in mixed spinal cord cultures through immunoblotting and immunocytochemistry. […] To gain further insight into the kinetics of the observed decrease in PR20 levels in cell lysates over time, we pulsed cells with 2 µM PR20 for 2 h, washed, replaced with fresh media (lacking PR20), and made cell lysates at regular intervals thereafter. […] To more easily follow GR20 by immunoblotting, we applied 10 µM GR20 to cultures and performed the same kinetic analysis as described in Figure 1D.
# [5] = tested on: U2OS cells and human astrocytes; details: cited from earlier work
# From the text: The difficulty of distinguishing between toxic HRE mRNA and DPR proteins has impeded our understanding of the mechanism underlying C9ORF72 HRE pathophysiology. As reported in Science ([Kwon et al., 2014]), the McKnight lab devised a strategy to overcome this problem: they studied U2OS cells and human astrocytes directly exposed to synthetic DPR proteins. […] We built upon this approa ...
# [6] = 10 µM in media, continuous exposure
compound,measurement,setting,value
Cc1cc(C(=O)CN2CCCC2)c(C)n1-c1ccc(F)cc1 [IU1],effect of IU1 on MG132-induced reduction in motor neuron number,"motor neurons [1]; 5 µM IU1, 150 nM MG132, 5 d",reversed
same,effect of IU1 on PR20-induced motor neuron death,"motor neurons [1]; 5 µM IU1 every other day with PR20, 5 d, p < 0.05",blocks the toxic effects; also recorded: rescued to control levels; also recorded: prevents this effect
same,effect of IU1 alone on motor neuron survival,"motor neurons [1]; 5 µM IU1 every other day, vehicle-treated cells, 5 d",not toxic; also recorded: did not influence the survival
"CC(C)C[C@@H](C=O)NC(=O)[C@H](CC(C)C)NC(=O)[C@H](CC(C)C)NC(=O)OCc1ccccc1 [MG132, reference compound] (Cbz-Leu-Leu-Leu-aldehyde)","LD50, motor neuron number","motor neurons [2]; added one time to mixed spinal cord cultures, counted 5 d later",100 to 150 nM
same,motor neuron number compared with all other experimental groups,"motor neurons [1]; 150 nM MG132, 5 d, p = 0.001",statistically significantly fewer motor neurons
same,Dendra2 half-life,"Dendra2; MG132 (10 µM), p = 3.23 × 10^−5",32.3 h
same,extension of Dendra2-LC3 half-life compared with control,"Dendra2-LC3; 10 µM MG132, primary spinal neurons",11.9 h
same,proteasomal flux versus control,"[3]; 150 nM MG132 48 h, then 5 µM MG132 or vehicle 4 h, n = 6, p = 0.027",statistically significant reduction
"GR20: synthetic, HA-tagged dipeptide repeat protein: glycine/arginine repeated 20 times",toxicity to motor neurons at ∼20 times higher concentration than PR20,motor neurons [2]; 5 d,not toxic
same,period of maximal accumulation in cells,[4]; [6],first hour
same,time point at which immunoblot signal is undetectable,[4]; [6],24 h
same,earliest detection in cell lysates,"[4]; 10 µM in media, continuous exposure, anti-HA immunoblot",15 min
same,lysate fractions with detectable Western blot signal at the 2-h time point,"[4]; 2-h pulse-chase, 10 µM",soluble fraction only
same,time point by which signal diminishes to a barely detectable level,"[4]; 2-h pulse-chase, 10 µM",4 h
same,half-life of dipeptide in cells,[4]; immunoblot of mixed spinal cord culture lysates,on the orders of hours
same,detectability by immunoblotting in lysates,[4]; single 2-h application of 2 µM,weakly detectable
same,toxic concentration range,[5],10 to 30 µM
same,Dendra2 half-life,"Dendra2; 2 µM peptide, not significantly different from vehicle",31.0 h
same,extension of Dendra2-LC3 half-life compared with control,"Dendra2-LC3; 2 µM peptide, primary spinal neurons, single-cell optical pulse labeling",1.5 h
same,proteasomal flux (difference in ubiquitin +/- MG-132) versus vehicle,"[3]; peptide 48 h (PR20 2 µM), then MG-132 5 µM or vehicle 4 h, permutation test",neither influenced total ubiquitin levels nor proteasomal flux
